The record followed here is PMC3104405 (Biochemical and biophysical research communications, 2011).

Several values for one entry are separate records, joined by “and”; a condition that tells them apart may be missing. Equal entries are not always repeated. Where two headings read alike, the source gives them in different places.

The target in assay [1] is T1, anthrax lethal factor (LF) (Bacillus anthracis, UniProt P15917).
In assay [2] the target is T1, anthrax lethal factor (LF). As to conditions: for Km / kcat / kcat/Km: pH 7.4.

T1 sequence (P15917 34-809 limits assumed): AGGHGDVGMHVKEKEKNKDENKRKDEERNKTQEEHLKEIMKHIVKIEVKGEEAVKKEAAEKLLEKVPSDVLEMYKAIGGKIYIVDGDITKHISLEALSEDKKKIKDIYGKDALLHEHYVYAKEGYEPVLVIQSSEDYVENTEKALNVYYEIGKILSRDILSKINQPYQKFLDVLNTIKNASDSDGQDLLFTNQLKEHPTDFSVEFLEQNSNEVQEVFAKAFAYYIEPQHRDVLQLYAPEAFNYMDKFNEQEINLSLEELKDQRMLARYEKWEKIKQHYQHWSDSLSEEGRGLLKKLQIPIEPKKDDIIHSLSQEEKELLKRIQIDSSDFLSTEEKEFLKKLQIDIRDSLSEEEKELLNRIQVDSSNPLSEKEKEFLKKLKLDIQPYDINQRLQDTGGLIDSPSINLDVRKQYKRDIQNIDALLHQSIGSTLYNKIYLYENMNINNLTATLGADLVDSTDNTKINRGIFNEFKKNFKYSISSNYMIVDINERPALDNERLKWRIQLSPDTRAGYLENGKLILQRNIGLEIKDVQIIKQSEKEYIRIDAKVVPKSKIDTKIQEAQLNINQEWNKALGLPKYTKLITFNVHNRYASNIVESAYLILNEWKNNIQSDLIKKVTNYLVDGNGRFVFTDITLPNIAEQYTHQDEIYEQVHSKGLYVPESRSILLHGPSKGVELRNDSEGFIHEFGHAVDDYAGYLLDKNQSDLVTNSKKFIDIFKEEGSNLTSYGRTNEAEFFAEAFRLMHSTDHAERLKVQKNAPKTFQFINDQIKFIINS

The kcat/Km is the turnover number divided by the Michaelis constant. For Mca-KKPTP-IQLN-Dnp [Substrate 1], the kcat/Km in assay [1] is 1.5 min^−1 M^−1 and 1.5 ^a min^−1 M^−1.

The Km is the concentration of substrate that gives half-maximal velocity. In general, kcat refers to the number of substrate molecules converted per active site and unit of time at saturation. In the case of Mca-KKVYP-YPMEK-Dnp [Substrate 2], in assay [2], the Km was 58.5 µM, the kcat amounted to 4450 min⁻¹ and the kcat/Km came to 76 min⁻¹ M⁻¹.

On to Mca-KKWLM-YPLEK-Dnp [Substrate 3], for which, in assay [2], the “fold higher kcat/Km than substrate No. 2” value is “about two-fold”, the Km amounted to 16.9 µM, the kcat stood at 2390 min⁻¹ and the kcat/Km was 140 min⁻¹ M⁻¹.
